Test results as given in patent publication US8846719B2, “Isoxazolo-pyridine derivatives” (Roche Palo Alto LLC, priority 2007, dated 2014).
Read-outs that look alike come from different tables or passages of the source.

Biological target: human GABA A receptor α5β3γ2 (Homo sapiens (Human), UniProt P18507+P31644)
Assay: [3H]flumazenil competition binding assay, human GABA A α5β3γ2 receptors expressed in HEK293 cells
Procedure, shortened: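 Ki values, each the mean of two runs, derive from displacement of [3H]flumazenil from human α5β3γ2 GABA A receptors transiently expressed in HEK293 membranes. Binding ran 1 h at 4° C in Krebs-tris, pH 7.5, before filter harvest and scintillation counting.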

[1] = human receptor, displacement of [3H]flumazenil (0.5 nM), means of two determinations, read-out: hKi GABAAa5

Row | SMILES | Ki [1] | Ki
1 | Cc1onc(-c2ccc(F)cc2)c1COc1ccc(C(=O)N2CCSCC2)cn1 [Example 111, {6-[3-(4-Fluoro-phenyl)-5-methyl-isoxazol-4-ylmethoxy]-pyridin-3-yl}-thiomorpholin-4-yl-methanone] | 10.4 nM | –
2 | Cc1onc(-c2ccc(F)cc2)c1COc1ccc(C2(O)COC2)cn1 [Example 113, 3-{6-[3-(4-Fluoro-phenyl)-5-methyl-isoxazol-4-ylmethoxy]-pyridin-3-yl}-oxetan-3-ol] | 20.9 nM | –
3 | Cc1onc(-c2ccc(F)cc2)c1COc1ccc(C(=O)N2C[C@H]3C[C@@H](C2)O3)cn1 [Example 114, {6-[3-(4-Fluoro-phenyl)-5-methyl-isoxazol-4-ylmethoxy]-pyridin-3-yl}-(1R,5S)-6-oxa-3-aza-bicyclo [3.1.1]hept-3-yl-methanone] | – | 42.6 nM
4 | COC(=O)c1ccc(OCc2c(-c3ccc(Cl)cc3)noc2C)nc1 [Example 115, 6-[3-(4-Chloro-phenyl)-5-methyl-isoxazol-4-ylmethoxy]-nicotinic acid methyl ester] | 4.5 nM | –
5 | Cc1onc(-c2ccc(Cl)cc2)c1COc1ccc(C(=O)O)cn1 [Example 116, 6-[3-(4-Chloro-phenyl)-5-methyl-isoxazol-4-ylmethoxy]-nicotinic acid] | 22.3 nM | –
6 | Cc1onc(-c2ccc(Cl)cc2)c1COc1ccc(C(=O)NCC(F)(F)F)cn1 [Example 117, 6-[3-(4-Chloro-phenyl)-5-methyl-isoxazol-4-ylmethoxy]-N-(2,2,2-trifluoro-ethyl)-nicotinamide] | 2.1 nM | –
7 | Cc1onc(-c2ccc(Cl)cc2)c1COc1ccc(C(=O)NCC2CC2)cn1 [Example 118, 6-[3-(4-Chloro-phenyl)-5-methyl-isoxazol-4-ylmethoxy]-N-cyclopropylmethyl-nicotinamide] | 1.3 nM | –
8 | Cc1onc(-c2ccc(Cl)cc2)c1COc1ccc(C(=O)NC(C)C)cn1 [Example 119, 6-[3-(4-Chloro-phenyl)-5-methyl-isoxazol-4-ylmethoxy]-N-isopropyl-nicotinamide] | 0.7 nM | –
9 | Cc1onc(-c2ccc(Cl)cc2)c1COc1ccc(C(=O)NC2CC2)cn1 [Example 120, 6-[3-(4-Chloro-phenyl)-5-methyl-isoxazol-4-ylmethoxy]-N-cyclopropyl-nicotinamide] | 1.1 nM | –
10 | Cc1onc(-c2ccc(Cl)cc2)c1COc1ccc(C(=O)NC2CCOCC2)cn1 [Example 121, 6-[3-(4-Chloro-phenyl)-5-methyl-isoxazol-4-ylmethoxy]-N-(tetrahydro-pyran-4-yl)-nicotinamide] | 0.8 nM | –
11 | Cc1onc(-c2ccc(Cl)cc2)c1COc1ccc(C(=O)N2CCS(=O)(=O)CC2)cn1 [Example 122, {6-[3-(4-Chloro-phenyl)-5-methyl-isoxazol-4-ylmethoxy]-pyridin-3-yl}-(1,1-dioxo-1,6-thiomorpholin-4-yl)-methanone] | 2.9 nM | –
12 | Cc1onc(-c2ccc(Cl)cc2)c1COc1ccc(C(=O)N2CCSCC2)cn1 [Example 124, {6-[3-(4-Chloro-phenyl)-5-methyl-isoxazol-4-ylmethoxy]-pyridin-3-yl}-thiomorpholin-4-yl-methanone] | 7.5 nM | –
13 | Cc1onc(-c2ccc(F)c(F)c2)c1COc1ccc(C(=O)NCC(F)(F)F)cn1 [Example 125, 6-[3-(3,4-Difluoro-phenyl)-5-methyl-isoxazol-4-ylmethoxy]-N-(2,2,2-trifluoro-ethyl)-nicotinamide] | 2.7 nM | –
14 | Cc1onc(-c2ccc(F)c(F)c2)c1COc1ccc(C(=O)NC(C)C)cn1 [Example 126, 6-[3-(3,4-Difluoro-phenyl)-5-methyl-isoxazol-4-ylmethoxy]-N-isopropyl-nicotinamide] | 4.7 nM | –
15 | Cc1onc(-c2ccc(F)c(F)c2)c1COc1ccc(C(=O)NC2CCOCC2)cn1 [Example 127, 6-[3-(3,4-Difluoro-phenyl)-5-methyl-isoxazol-4-ylmethoxy]-N-(tetrahydro-pyran-4-yl)-nicotinamide] | 2.4 nM | –
16 | COC(=O)c1ccc(OCc2c(-c3ccccc3)noc2C(F)(F)F)nc1 [Example 128, 6-(3-Phenyl-5-trifluoromethyl-isoxazol-4-ylmethoxy)-nicotinic acid methyl ester] | 88.5 nM | –
17 | CNC(=O)c1ccc(OCc2c(-c3ccccc3)noc2C(F)(F)F)nc1 [Example 129, N-Methyl-6-(3-phenyl-5-trifluoromethyl-isoxazol-4-ylmethoxy)-nicotinamide] | 24.3 nM | –
18 | CCNC(=O)c1ccc(OCc2c(-c3ccccc3)noc2C(F)(F)F)nc1 [Example 130, N-Ethyl-6-(3-phenyl-5-trifluoromethyl-isoxazol-4-ylmethoxy)-nicotinamide] | 30.8 nM | –
19 | O=C(NCCO)c1ccc(OCc2c(-c3ccccc3)noc2C(F)(F)F)nc1 [Example 131, N-(2-Hydroxy-ethyl)-6-(3-phenyl-5-trifluoromethyl-isoxazol-4-ylmethoxy)-nicotinamide] | 34 nM | –
20 | O=C(NCC1CC1)c1ccc(OCc2c(-c3ccccc3)noc2C(F)(F)F)nc1 [Example 132, N-Cyclopropylmethyl-6-(3-phenyl-5-trifluoromethyl-isoxazol-4-ylmethoxy)-nicotinamide] | 28.3 nM | –

Row | SMILES | Ki [1] | Ki
21 | CC(C)NC(=O)c1ccc(OCc2c(-c3ccccc3)noc2C(F)(F)F)nc1 [Example 133, N-Isopropyl-6-(3-phenyl-5-trifluoromethyl-isoxazol-4-ylmethoxy)-nicotinamide] | 41.6 nM | –
22 | O=C(NC1CC1)c1ccc(OCc2c(-c3ccccc3)noc2C(F)(F)F)nc1 [Example 134, N-Cyclopropyl-6-(3-phenyl-5-trifluoromethyl-isoxazol-4-ylmethoxy)-nicotinamide] | 23.8 nM | –
23 | O=C(NC1CCOCC1)c1ccc(OCc2c(-c3ccccc3)noc2C(F)(F)F)nc1 [Example 135, 6-(3-Phenyl-5-trifluoromethyl-isoxazol-4-ylmethoxy)-N-(tetrahydro-pyran-4-yl)-nicotinamide] | 22.1 nM | –
24 | COC(=O)c1ccc(OCc2c(-c3ccc(F)cc3)noc2C(F)(F)F)nc1 [Example 136, 6-[3-(4-Fluoro-phenyl)-5-trifluoromethyl-isoxazol-4-ylmethoxy]-nicotinic acid methyl ester] | 57 nM | –
25 | CNC(=O)c1ccc(OCc2c(-c3ccc(F)cc3)noc2C(F)(F)F)nc1 [Example 137, 6-[3-(4-Fluoro-phenyl)-5-trifluoromethyl-isoxazol-4-ylmethoxy]-N-methyl-nicotinamide] | 19.8 nM | –
26 | CCNC(=O)c1ccc(OCc2c(-c3ccc(F)cc3)noc2C(F)(F)F)nc1 [Example 138, N-Ethyl-6-[3-(4-fluoro-phenyl)-5-trifluoromethyl-isoxazol-4-ylmethoxy]-nicotinamide] | 33.3 nM | –
27 | O=C(NCCO)c1ccc(OCc2c(-c3ccc(F)cc3)noc2C(F)(F)F)nc1 [Example 139, 6-[3-(4-Fluoro-phenyl)-5-trifluoromethyl-isoxazol-4-ylmethoxy]-N-(2-hydroxy-ethyl)-nicotinamide] | 16.5 nM | –
28 | O=C(NCC(F)(F)F)c1ccc(OCc2c(-c3ccc(F)cc3)noc2C(F)(F)F)nc1 [Example 140, 6-[3-(4-Fluoro-phenyl)-5-trifluoromethyl-isoxazol-4-ylmethoxy]-N-(2,2,2-trifluoro-ethyl)-nicotinamide] | 57.8 nM | –
29 | O=C(NCC1CC1)c1ccc(OCc2c(-c3ccc(F)cc3)noc2C(F)(F)F)nc1 [Example 141, N-Cyclopropylmethyl-6-[3-(4-fluoro-phenyl)-5-trifluoromethyl-isoxazol-4-ylmethoxy]-nicotinamide] | 22.5 nM | –
30 | CC(C)NC(=O)c1ccc(OCc2c(-c3ccc(F)cc3)noc2C(F)(F)F)nc1 [Example 142, 6-[3-(4-Fluoro-phenyl)-5-trifluoromethyl-isoxazol-4-ylmethoxy]-N-isopropyl-nicotinamide] | 33.5 nM | –
31 | O=C(NC1CC1)c1ccc(OCc2c(-c3ccc(F)cc3)noc2C(F)(F)F)nc1 [Example 143, N-Cyclopropyl-6-[3-(4-fluoro-phenyl)-5-trifluoromethyl-isoxazol-4-ylmethoxy]-nicotinamide] | 38.4 nM | –
32 | O=C(NC1CCOCC1)c1ccc(OCc2c(-c3ccc(F)cc3)noc2C(F)(F)F)nc1 [Example 144, 6-[3-(4-Fluoro-phenyl)-5-trifluoromethyl-isoxazol-4-ylmethoxy]-N-(tetrahydro-pyran-4-yl)-nicotinamide] | 12.5 nM | –
33 | O=C(c1ccc(OCc2c(-c3ccc(F)cc3)noc2C(F)(F)F)nc1)N1CCS(=O)(=O)CC1 [Example 145, (1,1-Dioxo-1λ6-thiomorpholin-4-yl)-{6-[3-(4-fluoro-phenyl)-5-trifluoromethyl-isoxazol-4-ylmethoxy]-pyridin-3-yl}-methanone] | 58.9 nM | –
34 | Cc1onc(-c2ccncc2)c1COc1ccc(C(=O)NCC(F)(F)F)cn1 [Example 146, 6-(5-Methyl-3-pyridin-4-yl-isoxazol-4-ylmethoxy)-N-(2,2,2-trifluoro-ethyl)-nicotinamide] | 5.9 nM | –
35 | Cc1onc(-c2ccncc2)c1COc1ccc(C(=O)NCC2CC2)cn1 [Example 147, N-Cyclopropylmethyl-6-(5-methyl-3-pyridin-4-yl-isoxazol-4-ylmethoxy)-nicotinamide] | 4.1 nM | –
36 | Cc1onc(-c2ccncc2)c1COc1ccc(C(=O)NC2CC2)cn1 [Example 148, N-Cyclopropyl-6-(5-methyl-3-pyridin-4-yl-isoxazol-4-ylmethoxy)-nicotinamide] | 7.1 nM | –
37 | Cc1onc(-c2ccncc2)c1COc1ccc(C(=O)NC(C)C)cn1 [Example 149, N-Isopropyl-6-(5-methyl-3-pyridin-4-yl-isoxazol-4-ylmethoxy)-nicotinamide] | 4.5 nM | –
38 | Cc1onc(-c2ccncc2)c1COc1ccc(C(=O)NC2CCOCC2)cn1 [Example 150, 6-(5-Methyl-3-pyridin-4-yl-isoxazol-4-ylmethoxy)-N-(tetrahydro-pyran-4-yl)-nicotinamide] | 5.6 nM | –
39 | Cc1onc(-c2ccncc2)c1COc1ccc(C(=O)N2CCOCC2)cn1 [Example 151, [6-(5-Methyl-3-pyridin-4-yl-isoxazol-4-ylmethoxy)-pyridin-3-yl]-morpholin-4-yl-methanone] | 84.5 nM | –
